Laboratory results reported in patent publication US9320276B2, “N-hetarylmethyl pyrazolylcarboxamides” (BAYER INTELLECTUAL PROPERTY GMBH, priority 2010, dated 2016).

Assays:
[1] = logP by HPLC on reversed-phase column (EEC Directive 79/831 Annex V.A8); assay type: physicochemical; conditions: HPLC on reversed-phase column (C 18), 40° C., 0.1% aqueous formic acid and acetonitrile, linear gradient 10% to 90% acetonitrile
Method in brief: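 Reversed-phase C18 HPLC at 40° C with 0.1% aqueous formic acid/acetonitrile, linear gradient 10% to 90% acetonitrile. LogP obtained from retention time by linear interpolation between successive unbranched alkan-2-ones (3 to 16 carbons) of known logP. Lambda-max taken from UV spectra at 200-400 nm at chromatographic peak maxima.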

[2] = tested on: Blumeria graminis fsp. hordei; assay: in vivo preventive test on Blumeria graminis (barley); conditions: 500 ppm of active ingredient, evaluated 7 days after inoculation
Experimental: Solvent: 49 parts by weight of N,N-dimethylacetamide Emulsifier: 1 part by weight of alkylaryl polyglycol ether To produce a suitable preparation of active compound, 1 part by weight of active compound or active compound combination is mixed with the stated amounts of solvent and emulsifier, and the concentrate is diluted with water to the desired concentration. To test for preventive activity, young plants are sprayed with the preparation of active compound or active compound combination at the stated rate of application. After the spray coating has been dried, the plants are dusted with spores of Blumeria graminis fsp. hordei. The plants are placed in the greenhouse at a temperature of approximately 18° C. and a relative atmospheric humidity of approximately 80% to promote the development of mildew pustules. The test is evaluated 7 days after the inoculation. 0% means an efficacy which corresponds to that of the untreated control, while an efficacy of 100% means that no disease is observed.

Leptosphaeria nodorum = assay: in vivo preventive test on Leptosphaeria nodorum (wheat); conditions: 500 ppm of active ingredient, evaluated 7-9 days after inoculation
Experimental: (§1) Solvent: 49 parts by weight of N,N-dimethylacetamide Emulsifier: 1 part by weight of alkylaryl polyglycol ether To produce a suitable preparation of active compound, 1 part by weight of active compound is mixed with the stated amounts of solvent and emulsifier, and the concentrate is diluted with water to the desired concentration. To test for preventive activity, young plants are sprayed with a preparation of active compound at the stated rate of application. One day after this treatment, the plants are inoculated with an aqueous spore suspension of Leptosphaeria nodorum. The plants remain for 48 hours in an incubation cabinet at 22° C. and a relative atmospheric humidity of 100%. Then the plants are placed in a greenhouse at a temperature of approximately 22° C. and a relative atmospheric humidity of approximately 90%. The test is evaluated 7-9 days after the inoculation. 0% means an efficacy which corresponds to that of the untreated control, while an efficacy of 100% means that no disease is observed.

Pyrenophora teres = assay: in vivo preventive test on Pyrenophora teres (barley); conditions: 500 ppm of active ingredient, evaluated 7-9 days after inoculation
Experimental: as §1, with “weight of N,N-dimethylformamide Emulsifier: 1” for “weight of N,N-dimethylacetamide Emulsifier: 1”, “sprayed with the preparation of” for “sprayed with a preparation of”, “suspension of Pyrenophora teres. The plants” for “suspension of Leptosphaeria nodorum. The plants”, “of approximately 20° C. and” for “of approximately 22° C. and”, “of approximately 80%. The test” for “of approximately 90%. The test”, “the untreated control while an” for “the untreated control, while an”

Septoria tritici = assay: in vivo preventive test on Septoria tritici (wheat); conditions: 500 ppm of active ingredient, evaluated 21 days after inoculation
Experimental: (§2) Solvent: 49 parts by weight of N,N-dimethylacetamide Emulsifier: 1 part by weight of alkylaryl polyglycol ether To produce a suitable preparation of active compound, 1 part by weight of active compound or active compound combination is mixed with the stated amounts of solvent and emulsifier, and the concentrate is diluted with water to the desired concentration. To test for preventive activity, young plants are sprayed with the preparation of active compound or active compound combination at the stated rate of application. After the spray coating has been dried, the plants are sprayed with a spore suspension of Septoria tritici. The plants remain for 48 hours in an incubation cabinet at approximately 20° C. and a relative atmospheric humidity of approximately 100% and afterwards for 60 hours at approximately 15° C. in a translucent incubation cabinet at a relative atmospheric humidity of approximately 100%. The plants are placed in the greenhouse at a temperature of approximately 15° C. and a relative atmospheric humidity of approximately 80%. The test is evaluated 21 days after the inoculation. 0% means an efficacy which corresponds to that of the untreated control, while an efficacy of 100% means that no disease is observed.

[3] = tested on: Fusarium nivale (var. majus); assay: in vivo curative test on Fusarium nivale (wheat); conditions: 500 ppm of active ingredient, evaluated 5 days after inoculation
Experimental: Solvent: 49 parts by weight of N,N-dimethylacetamide Emulsifier: 1 part by weight of alkylaryl polyglycol ether To produce a suitable preparation of active compound, 1 part by weight of active compound or active compound combination is mixed with the stated amounts of solvent and emulsifier, and the concentrate is diluted with water to the desired concentration. To test for curative activity, young plants are slightly injured by using a sandblast and afterwards they are sprayed with a conidia suspension of Fusarium nivale (var. majus) and placed for 24 hours in a greenhouse under a translucent incubation cabinet at a temperature of approximately 10° C. and a relative atmospheric humidity of approximately 100% and are subsequently sprayed with the preparation of active compound at the stated rate of application. After the spray coating has been dried, the plants remain in the greenhouse under translucent incubation cloches at a temperature of approximately 10° C. and a relative atmospheric humidity of approximately 100%. The test is evaluated 5 days after the inoculation. 0% means an efficacy which corresponds to that of the untreated control, while an efficacy of 100% means that no disease is observed.

Sphaerotheca fuliginea = assay: in vivo preventive test on Sphaerotheca fuliginea (cucumber); conditions: 500 ppm of active ingredient, evaluated 7 days after inoculation
Experimental: Solvent: 49 parts by weight of N,N-dimethylformamide Emulsifier: 1 part by weight of Alkylarylpolyglycolether To produce a suitable preparation of active compound, 1 part by weight of active compound is mixed with the stated amounts of solvent and emulsifier, and the concentrate is diluted with water to the desired concentration. To test for preventive activity, young plants are sprayed with the preparation of active compound at the stated rate of application. One day after this treatment, the plants are inoculated with an aqueous spore suspension of Sphaerotheca fuliginea. Then the plants are placed in a greenhouse at approximately 23° C. and a relative atmospheric humidity of approximately 70%. The test is evaluated 7 days after the inoculation. 0% means an efficacy which corresponds to that of the untreated control, while an efficacy of 100% means that no disease is observed.

Alternaria solani = assay: in vivo preventive test on Alternaria solani (tomato); conditions: 500 ppm of active ingredient, evaluated 7 days after inoculation
Experimental: Solvent: 49 parts by weight of N,N-dimethylformamide Emulsifier: 1 part by weight of Alkylarylpolyglycolether To produce a suitable preparation of active compound, 1 part by weight of active compound is mixed with the stated amounts of solvent and emulsifier, and the concentrate is diluted with water to the desired concentration. To test for preventive activity, young plants are sprayed with the preparation of active compound at the stated rate of application. One day after this treatment, the plants are inoculated with an aqueous spore suspension of Alternaria solani. The plants remain for one day in an incubation cabinet at approximately 22° C. and a relative atmospheric humidity of 100%. Then the plants are placed in an incubation cabinet at approximately 20° C. and a relative atmospheric humidity of 96%. The test is evaluated 7 days after the inoculation. 0% means an efficacy which corresponds to that of the untreated control while an efficacy of 100% means that no disease is observed.

Puccinia triticina = assay: in vivo protective test on Puccinia triticina (wheat); conditions: 500 ppm of active ingredient, preventive, evaluated 8 days after inoculation
Experimental: as §2, with “Puccinia triticina.” for “Septoria tritici.”, “approximately” for “approximately 100% and afterwards for 60 hours at approximately 15° C. in a translucent incubation cabinet at a relative atmospheric humidity of approximately”, “20°” for “15°”, “8” for “21”

Venturia inaequalis = assay: in vivo preventive test on Venturia inaequalis (apple scab); conditions: 100 ppm of active ingredient, evaluated 10 days after inoculation
Experimental: Solvent: 24.5 parts by weight of acetone • 24.5 parts by weight of N,N-dimethylacetamide Emulsifier: 1 part by weight of alkylaryl polyglycol ether To produce a suitable preparation of active compound, 1 part by weight of active compound is mixed with the stated amounts of solvent and emulsifier, and the concentrate is diluted with water to the desired concentration. To test for preventive activity, young plants are sprayed with the preparation of active compound at the stated rate of application. After the spray coating has dried on, the plants are inoculated with an aqueous conidia suspension of the causal agent of apple scab (Venturia inaequalis) and then remain for 1 day in an incubation cabinet at approximately 20° C. and a relative atmospheric humidity of 100%. The plants are then placed in a greenhouse at approximately 21° C. and a relative atmospheric humidity of approximately 90%. The test is evaluated 10 days after the inoculation. 0% means an efficacy which corresponds to that of the untreated control, while an efficacy of 100% means that no disease is observed.

Row | logP [1] | SMILES | Efficacy [2] [%] | Efficacy (Leptosphaeria nodorum) [%] | Efficacy (Pyrenophora teres) [%] | Efficacy (Septoria tritici) [%] | Efficacy [3] [%] | Efficacy (Sphaerotheca fuliginea) [%] | Efficacy (Alternaria solani) [%] | Efficacy (Puccinia triticina) [%] | Efficacy (Venturia inaequalis) [%]
1 | 4.04 | Cc1nn(-c2ccccc2)nc1CN(C(=S)c1c(C(F)F)nn(C)c1F)C1CC1 [Example 132] |  |  | 100 |  |  | 100 | 90 |  | 98
2 | 3.73 | Cn1nc(C(F)F)c(C(=O)N(Cc2csc3ccc(Cl)cc23)C2CC2)c1F [Example 143] | 94 |  | 100 | 100 |  | 95 | 95 |  | 
3 | 3.27 | Cn1nc(C(F)F)c(C(=O)N(Cc2csc3ccccc23)C2CC2)c1F [Example 90] | 100 | 100 | 100 | 100 | 100 |  | 95 | 88 | 
4 | 3.19 | Cn1nc(C(F)F)c(C(=O)N(Cc2cccc3ccsc23)C2CC2)c1F [Example 93] | 94 |  | 100 | 100 | 71 |  | 100 | 100 | 
5 | 4.31 | Cc1c(CN(C(=S)c2c(C(F)F)nn(C)c2F)C2CC2)sc2ccccc12 [Example 124] |  |  | 100 |  |  | 98 | 100 |  | 
6 | 4.36 | Cn1nc(C(F)F)c(C(=S)N(Cc2csc3ccc(Cl)cc23)C2CC2)c1F [Example 145] |  |  | 100 |  |  | 93 | 90 |  | 

Second part, the compound before the results:

Row | SMILES | logP [1] | Efficacy [2] [%] | Efficacy (Leptosphaeria nodorum) [%] | Efficacy (Pyrenophora teres) [%] | Efficacy (Septoria tritici) [%] | Efficacy [3] [%] | Efficacy (Sphaerotheca fuliginea) [%] | Efficacy (Alternaria solani) [%] | Efficacy (Puccinia triticina) [%] | Efficacy (Venturia inaequalis) [%]
7 | Cn1nc(C(F)F)c(C(=O)N(Cc2cc3ccccc3o2)C2CC2)c1F [Example 71] | 3.11 | 89 | 80 | 100 | 100 | 100 |  |  |  | 
8 | Cn1nc(C(F)F)c(C(=O)N(Cc2c(Cl)cncc2Cl)C2CC2)c1F [Example 115] | 2.54 |  | 80 | 100 | 86 | 71 | 83 | 100 |  | 
9 | Cn1nc(C(F)F)c(C(=O)N(Cc2cc3ccccc3n2-c2ccccc2)C2CC2)c1F [Example 155] | 3.96 | 70 | 80 | 100 | 100 | 100 |  | 95 | 75 | 
10 | CC(c1cccnc1Cl)N(C(=O)c1c(C(F)F)nn(C)c1F)C1CC1 (stereo not drawn) [Example 50] | 2.23 | 89 | 71 | 100 | 71 |  | 100 | 95 |  | 
11 | Cc1cc(C(C)N(C(=O)c2c(C(F)F)nn(C)c2F)C2CC2)c(C)s1 (stereo not drawn) [Example 48] | 3.62 | 100 | 100 | 100 | 100 | 86 |  | 95 |  | 
12 | Cc1c(CN(C(=O)c2c(C(F)F)nn(C)c2F)C2CC2)sc2ccccc12 [Example 122] | 3.64 |  | 100 | 100 | 100 | 93 |  | 95 | 100 | 
13 | Cc1ccsc1CN(C(=O)c1c(C(F)F)nn(C)c1F)C1CC1 [Example 40] | 2.88 | 100 |  | 100 | 100 | 92 | 90 | 95 | 71 | 
